# Results: patent publication EP1455919B1, “IODINE EXTRACTION METHOD” (Commissariat à l'Énergie Atomique et aux Énergies …, priority 2001, dated 2003)
# Assays:
# [1] = Liquid-liquid extraction of iodine from nitric acid solution into the organic solvent (distribution coefficient Dex, gamma spectrometry); format: physicochemical; details: equal volumes; for coefficient de distribution Dex de l'iode: first aqueous solution HNO3 3 mol/L, 125I 1500 kBq/L, ratio organic/aqueous iodine concentration at equilibrium
# Experimental: Dans un premier temps, on met en contact, dans un tube en polypropylène étanche, une première solution aqueuse d'acide nitrique de concentration 3 mol/L contenant de l'iode ^125I, à une teneur de 1500 kBq/L avec une phase organique contenant du 1,2-NPHE. Les volumes de la solution aqueuse et de la phase organique sont égaux. L'ensemble est agité entre 10 minutes et une heure de façon douce par un dispositif approprié et ultérieurement mis dans une centrifugeuse pour une durée de 10 minutes à 4000 rpm.
# On mesure le coefficient de distribution Dex de l'iode entre la première solution aqueuse et la phase organique, ce coefficient correspondant au rapport de la concentration en iode en phase organique à la concentration en iode en solution aqueuse à l'équilibre. Les concentrations en iode sont mesurées par spectrométrie gamma.
# [2] = Re-extraction of iodine from the loaded organic solvent into aqueous sodium hydroxide solution (distribution coefficient Dréex); format: physicochemical
# Excerpt: Dans un deuxième temps, on met en contact la phase organique après extraction et après élimination de la première solution aqueuse, avec une deuxième solution aqueuse de réextraction, ladite solution étant une solution aqueuse de soude, les volumes de phase organique et de solution de réextraction étant sensiblement égaux.
# Différents essais ont été effectués en faisant varier la concentration en soude de la deuxième solution aqueuse. On mesure les coefficients de distribution Dréex de l'iode, qui pour la réextraction correspond au rapport de la concentration en iode dans la seconde solution aqueuse à la concentration en iode en phase organique.
coefficient de distribution Dex de l'iode [1],"Dréex ([2]; soude 0,1 mol/L (10^-1 mol/L))",SMILES,further results
"5,2","0,028","CC(C)CCCCCCCCCCO [Isotridécanol, isotridécanol, reference compound]",
"8,7","0,023","CCCCCCCCO [Octanol, octanol, reference compound]",
2.7,11.6,CCCCCCc1ccccc1 [hexylbenzène],

# More lines, now with the values behind:
SMILES,coefficient de distribution Dex de l'iode [1],"Dréex ([2]; soude 0,1 mol/L (10^-1 mol/L))",further results
"CCCCCCOc1ccccc1[N+](=O)[O-] [1,2-NPHE, 1,2-nitrophénylhexyléther]",3,"5,7","% d'extraction ([1]; corresponds to Dex of 3, HNO3 3 mol/L): 75%; Dréex ([2]; soude 0,5 mol/L): 6,6; Dréex ([2]; soude 0,6 mol/L): 7,6; Dréex ([2]; soude 1,5 mol/L): 6,6; Dréex ([2]; soude 1 mol/L): 7,0; Dréex ([2]; soude 2 mol/L, ratio aqueous/organic): 6,3; Dréex ([2]; soude 5.10^-2 mol/L): 5,5; Dréex ([2]; soude 5.10^-3 mol/L): 0,04; Dréex ([2]; soude 10^-1 mol/L with borohydrure de sodium 10^-3 mol/L): 5,8; Dréex ([2]; soude 10^-2 mol/L): 4,9; Dréex ([2]; soude 10^-3 mol/L): 0,02; Dréex ([2]; soude 10^-4 mol/L): 0"
"CCCCCCCCOc1ccccc1[N+](=O)[O-] [1,2-NPOE, 1,2-nitrophényloctyléther]","2,9","1,7",
"CC(C)c1cccc(C(C)C)c1 [1,3-diisopropylbenzène]","2,3","2,3",
"CC(=O)CC(C)C [4-méthyl-1,2-pentanone, reference compound]","9,1","0,012",
"CCCCCC(=O)O [Acide Hexanoique, acide hexanoïque, reference compound]","4,1","0,04",
"CCCCOC(C)=O [Acétate de butyle, acétate de butyle, reference compound]","6,6","0,014",
CCCCCC [hexane],"1,5","4,2",
